From patent US20200131156A1, “ARYLSULFONYLPYROLECARBOXAMIDE DERIVATIVES AS Kv3 POTASSIUM CHANNEL ACTIVATORS” (H. Lundbeck A/S, priority 2018, published 2020)

Molecular target: T1, hKv3.1b (Homo sapiens, UniProt P48547)
T1 construct: expressed in transfected cells
T1 sequence (P48547 1-585 isoform P48547-2): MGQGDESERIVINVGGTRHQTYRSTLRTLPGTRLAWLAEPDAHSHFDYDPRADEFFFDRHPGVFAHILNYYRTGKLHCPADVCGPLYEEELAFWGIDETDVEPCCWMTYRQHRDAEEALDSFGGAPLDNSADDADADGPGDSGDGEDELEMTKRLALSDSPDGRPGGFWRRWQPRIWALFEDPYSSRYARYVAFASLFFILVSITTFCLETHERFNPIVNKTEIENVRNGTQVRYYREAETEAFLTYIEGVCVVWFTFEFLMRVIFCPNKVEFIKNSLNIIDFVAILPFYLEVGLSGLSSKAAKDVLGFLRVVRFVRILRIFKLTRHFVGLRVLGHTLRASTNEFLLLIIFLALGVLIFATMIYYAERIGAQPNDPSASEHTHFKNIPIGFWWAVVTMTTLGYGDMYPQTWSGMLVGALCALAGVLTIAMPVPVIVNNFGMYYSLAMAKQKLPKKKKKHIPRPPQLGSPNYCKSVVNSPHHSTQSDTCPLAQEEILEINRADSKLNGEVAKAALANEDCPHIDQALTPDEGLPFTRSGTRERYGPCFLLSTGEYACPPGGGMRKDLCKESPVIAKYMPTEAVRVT
Assay: Automated patch clamp (QPatch-16x) on HEK-293 cells stably expressing hKv3.1b
Type: cell-based
Settings: for ECdelta5 mV: concentration needed to shift the activation threshold 5 mV; for Threshold Shift: maximum absolute hyperpolarizing shift of activation threshold at tested concentrations 0.37-30 μM
Description: HEK-293 cells stably expressing hKv3.1b were used for the experiments. Cells were cultured in DMEM medium supplemented with 10% Fetal Bovine Serum, 100 ug/mL Geneticidin and 100 u/mL Penicillin/Streptomycin (all from Gibco). Cells were grown to 80-90% confluency at 37° C. and 5% CO2. On the day of the experiment the cells were detached from the tissue culture flasks by Detachin, resuspended in serum free medium containing 25 mM HEPES and transferred to the cell hotel of the QPatch. The cells were used for experiments 0-5 hours after detachment.
Patch-clamp recordings were performed using the automated recording system QPatch-16x (Sophion Bioscience, Denmark). Cells were centrifuged, SFM removed and the cells were resuspended in extracellular buffer containing (in mM): 145 NaCl, 4 KCl, 1 MgCl2, 2 CaCl2, 10 HEPES and 10 glucose (added fresh on the day of experiment); pH 7.4 adjusted with NaOH, 305 mOsm adjusted with sucrose.
Single cell whole-cell recordings were carried out using an intracellular solution containing (in mM): 120 KCl, 32.25/10 KOH/EGTA, 5.374 CaCl2, 1.75 MgCl2, 10 HEPES, 4 Na2ATP (added fresh on the day), pH 7.2 adjusted with KOH, […] adjusted with sucrose. Cell membrane potentials were held at −80 mV and currents were evoked by voltage steps (200 ms duration) from −70 mV to +10 mV (in 10 mV increments). Vehicle (0.33% DMSO) or increasing concentration of compound (I) were applied and the voltage protocol was run 3 times (resulting in 3 min cpd incubation time). Five increasing concentrations of compound (I) were applied to each cell.
Leak subtraction protocol was applied at −33% of the sweep amplitude, and serial resistance values were constantly monitored.
Any cell where serial resistance exceeded 25 MOhm, membrane resistance less than 200 MOhm or current size at −10 mV less than 200 pA was eliminated from the subsequent analysis.
Data analysis was performed using Sophion's QPatch assay software in combination with Microsoft Excel™ (Redmond, Wash., USA). Current voltage relationships were plotted from the peak current at the individual voltage steps normalized to the vehicle addition at 10 mV. The voltage threshold for channel activation was defined as 5% activation of the peak current at 10 mV in presence of vehicle. The activity of the compounds was described as the ability to shift this current voltage relationship to more hyperpolarized potentials and is given as the maximum absolute shift possible at the tested concentrations (0.37, 1.11, 3.33, 10, 30 μM). Concentration response curves were plotted from the threshold shift at the individual concentrations and were fitted excel fit model 205 sigmoidal dose-response model (fit=A+((B−A)/1+((C/x)^D)))), where A is the minimum value, B the maximum value, C the EC50 value and D the slope of the curve. The concentration needed to shift the threshold 5 mV was readout from this curve (ECdelta5 mV).

Row | ECdelta5 mV [nM] | Threshold Shift [mV] | SMILES
1 | 1600 | 27 | Cc1ccc(S(=O)(=O)n2ccc(C(=O)NCc3ncc(C)cn3)c2)cc1 [Compound 1, N-[(5-methylpyrimidin-2-yl)methyl]-1-(p-tolylsulfonyl)pyrrole-3-carboxamide]
2 | 750 | 40 | Cc1ccc(S(=O)(=O)n2ccc(C(=O)NCc3cnc(C)nc3)c2)cc1 [Compound 2, N-[(2-methylpyrimidin-5-yl)methyl]-1-(p-tolylsulfonyl)pyrrole-3-carboxamide]
3 | 1100 | 25 | Cc1ccc(S(=O)(=O)n2ccc(C(=O)NCc3ccc(C)nn3)c2)cc1 [Compound 3, N-[(6-methylpyridazin-3-yl)methyl]-1-(p-tolylsulfonyl)pyrrole-3-carboxamide]
4 | 3100 | 17 | Cc1cnc(CNC(=O)c2ccn(S(=O)(=O)c3ccccc3F)c2)cn1 [Compound 4, 1-(2-fluorophenyl)sulfonyl-N-[(5-methylpyrazin-2-yl)methyl]pyrrole-3-carboxamide]
5 | 7800 | 10 | Cc1cnc(CNC(=O)c2ccn(S(=O)(=O)c3cccc(F)c3)c2)cn1 [Compound 5, 1-(3-fluorophenyl)sulfonyl-N-[(5-methylpyrazin-2-yl)methyl]pyrrole-3-carboxamide]
6 | 2300 | 24 | Cc1cnc(CNC(=O)c2ccn(S(=O)(=O)c3ccc(F)cc3)c2)cn1 [Compound 6, 1-(4-fluorophenyl)sulfonyl-N-[(5-methylpyrazin-2-yl)methyl]pyrrole-3-carboxamide]
7 | 1300 | 33 | COc1ccc(S(=O)(=O)n2ccc(C(=O)NCc3cnc(C)cn3)c2)cc1 [Compound 7, 1-(4-methoxyphenyl)sulfonyl-N-[(5-methylpyrazin-2-yl)methyl]pyrrole-3-carboxamide]
8 | 4000 | 12 | Cc1ccc(S(=O)(=O)n2cc(C)c(C(=O)NCc3cnc(C)cn3)c2)cc1 [Compound 8, 4-methyl-N-[(5-methylpyrazin-2-yl)methyl]-1-(p-tolylsulfonyl)pyrrole-3-carboxamide]
9 | 2400 | 15 | Cc1ccc(S(=O)(=O)n2ccc(C(=O)NCc3ccccn3)c2)cc1 [Compound 9, 1-(p-tolylsulfonyl)-N-(2-pyridylmethyl) pyrrole-3-carboxamide]
10 | 3600 | 10 | COc1cccnc1CNC(=O)c1ccn(S(=O)(=O)c2ccc(C)cc2)c1 [Compound 10, N-[(3-methoxy-2-pyridyl)methyl]-1-(p-tolylsulfonyl)pyrrole-3-carboxamide]
11 | 1300 | 16 | Cc1ccc(S(=O)(=O)n2ccc(C(=O)NCc3ncccc3F)c2)cc1 [Compound 11, N-[(3-fluoro-2-pyridyl)methyl]-1-(p-tolylsulfonyl) pyrrole-3-carboxamide]
12 | 1700 | 16 | Cc1ccc(S(=O)(=O)n2ccc(C(=O)NCc3cc(F)ccn3)c2)cc1 [Compound 12, N-[(4-fluoro-2-pyridyl)methyl]-1-(p-tolylsulfonyl) pyrrole-3-carboxamide]
13 | 1700 | 13 | Cc1ccc(S(=O)(=O)n2ccc(C(=O)NCc3ccc(F)cn3)c2)cc1 [Compound 13, N-[(5-fluoro-2-pyridyl)methyl]-1-(p-tolylsulfonyl) pyrrole-3-carboxamide]
14 | 1500 | 23 | Cc1ccc(S(=O)(=O)n2ccc(C(=O)NCc3cccnc3)c2)cc1 [Compound 14, 1-(p-tolylsulfonyl)-N-(3-pyridylmethyl) pyrrole-3-carboxamide]
15 | 1700 | 14 | Cc1ccc(S(=O)(=O)n2ccc(C(=O)NCc3cccc(C)n3)c2)cc1 [Compound 15, N-[(6-methyl-2-pyridyl)methyl]-1-(p-tolylsulfonyl)pyrrole-3-carboxamide]
16 | 3000 | 16 | Cc1ccc(S(=O)(=O)n2ccc(C(=O)NCc3cc(C)ccn3)c2)cc1 [Compound 16, N-[(4-methyl-2-pyridyl)methyl]-1-(p-tolylsulfonyl)pyrrole-3-carboxamide]
17 | 2300 | 16 | Cc1ccc(S(=O)(=O)n2ccc(C(=O)NCc3ncccc3C)c2)cc1 [Compound 17, N-[(3-methyl-2-pyridyl)methyl]-1-(p-tolylsulfonyl)pyrrole-3-carboxamide]
18 | 3500 | 10 | COc1ccc(CNC(=O)c2ccn(S(=O)(=O)c3ccc(C)cc3)c2)nc1 [Compound 18, N-[(5-methoxy-2-pyridyl)methyl]-1-(p-tolylsulfonyl) pyrrole-3-carboxamide]
19 | 2100 | 11 | COc1ccnc(CNC(=O)c2ccn(S(=O)(=O)c3ccc(C)cc3)c2)c1 [Compound 19, N-[(4-methoxy-2-pyridyl)methyl]-1-(p-tolylsulfonyl) pyrrole-3-carboxamide]
20 | 3200 | 24 | Cc1ccc(S(=O)(=O)n2ccc(C(=O)NCc3cnc4nccn4c3)c2)cc1 [Compound 24, N-(imidazo[1,2-a]pyrimidin-6-ylmethyl)-1-(p-tolylsulfonyl)pyrrole-3-carboxamide]
21 | 1100 | 37 | Cc1ccc(S(=O)(=O)n2ccc(C(=O)NCc3cnc(C)cn3)c2)cc1 [Compound 25, N-[(5-methylpyrazin-2-yl)methyl]-1-(p-tolylsulfonyl) pyrrole-3-carboxamide]
22 | 930 | 22 | Cc1ccc(S(=O)(=O)n2ccc(C(=O)NCc3ccc(C)nc3)c2)cc1 [Compound 26, N-[(6-methyl-3-pyridyl)methyl]-1-(p-tolylsulfonyl)pyrrole-3-carboxamide]
23 | 1500 | 27 | Cc1cnc(CNC(=O)c2ccn(S(=O)(=O)c3ccccc3C)c2)cn1 [Compound 28, N-[(5-methylpyrazin-2-yl)methyl]-1-(o-tolylsulfonyl) pyrrole-3-carboxamide]
24 | 1300 | 31 | Cc1ccc(S(=O)(=O)n2ccc(C(=O)NCc3cnccn3)c2)cc1 [Compound 29, 1-(p-tolylsulfonyl)-N-(pyrazin-2-ylmethyl) pyrrole-3-carboxamide]
25 | 2500 | 17 | Cc1cccc(S(=O)(=O)n2ccc(C(=O)NCc3cnc(C)cn3)c2)c1 [Compound 30, N-[(5-methylpyrazin-2-yl)methyl]-1-(m-tolylsulfonyl)pyrrole-3-carboxamide]
26 | 9600 | 13 | Cc1ccc(S(=O)(=O)n2ccc(C(=O)NCc3nnc(C)o3)c2)cc1 [Compound 31, N-[(5-methyl-1,3,4-oxadiazol-2-yl)methyl]-1-(p-tolylsulfonyl)pyrrole-3-carboxamide]
27 | 1300 | 16 | Cc1ccc(S(=O)(=O)n2ccc(C(=O)NCc3cc(C)on3)c2)cc1 [Compound 32, N-[(5-methylisoxazol-3-yl)methyl]-1-(p-tolylsulfonyl) pyrrole-3-carboxamide]
